Assay results published in patent US12582593B2, “Oral care compositions for gum health” (The Procter & Gamble Company, priority 2021, dated 2026).

Tested on: Primary Human Gingival Fibroblast (HGF)
Assay: In-vitro 2D tissue damage assay via Collagen-1 marker (Collagen-1 ELISA after TBHP challenge)
Type: cell-based
Details: 0.5% gel dilution 24 hr, 50 μM TBHP 1 hr, 24 hr in complete media; supernatant
Procedure: In vitro gingival 2D gingival fibroblast tissue damage/prevention was used to assess the effects of treatment with Inventive Compositions and Comparative compositions on collagen-1 ELISA assay.
The obtained tissues were kept in cold Dulbecco's modified Eagle's medium (DMEM, Gibco) with 10% fetal bovine serum and a cocktail of antibiotics and antimycotics. Next, the tissues were minced with a blade and spun down at 4° C. and 200×g for 5-10 minutes to separate and wash the pellets. Resuspended tissue explants were laid onto a 60 mm dish and kept in an incubator. Every 3-5 days during culture, fibroblasts grown from tissue explants were washed and continued under passage using 0.2% trypsin. Proliferation tests and cell damage recovery experiments were performed when the fibroblasts reached passages 3-10.
Primary Human gingival fibroblast (HGF) cell was maintained in a 37° C. incubator with 5% CO2 saturation. Dulbecco's modified Eagle's medium (DMEM, Gibco) containing 10% fetal calf serum, 1% penicillin-streptomycin was used as the complete culture medium, which was changed every 2-3 days.
1.8×10^5 Cells were seeded in a 6-well plate and cultured with complete medium in at 37° C. and 5% CO2 for 24 hr. […] The supernatant of cell culture was collected and analysed by Collagen-1 ELISA kit (CUSABIO).

TGF-B [Positive control (TGF-B)]
Collagen-1: 155.59 ng/mL
